Source: PubChem BioAssay (NCI)
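Method: 48-hour compound exposure of cells in 96-well plates, five concentrations, linear interpolation of endpoints. At the GI50, growth is halved. TGI denotes the concentration required for complete inhibition of growth.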

What was measured:
Experiment in all cases: NCI tumour cell line growth inhibition, 48 h
TK-10 renal = system: TK-10 renal
COLO 205 colon = system: COLO 205 colon
SK-MEL-28 melanoma = system: SK-MEL-28 melanoma
SK-MEL-5 melanoma = system: SK-MEL-5 melanoma
SF-539 CNS = system: SF-539 CNS
EKVX NSCLC = system: EKVX NSCLC
SR leukemia = system: SR leukemia
NCI-H226 lung = system: NCI-H226 lung
UACC-257 melanoma = system: UACC-257 melanoma
A498 renal = system: A498 renal
HCC-2998 colon = system: HCC-2998 colon
KM12 colon = system: KM12 colon
MCF7 breast = system: MCF7 breast
SK-OV-3 ovarian = system: SK-OV-3 ovarian
SF-268 CNS = system: SF-268 CNS
M14 melanoma = system: M14 melanoma
UO-31 renal = system: UO-31 renal
HOP-92 NSCLC = system: HOP-92 NSCLC
SK-MEL-2 melanoma = system: SK-MEL-2 melanoma
MDA-MB-231 breast = system: MDA-MB-231 breast
ACHN renal = system: ACHN renal
NCI-H460 lung = system: NCI-H460 lung
MALME-3M melanoma = system: MALME-3M melanoma
UACC-62 melanoma = system: UACC-62 melanoma
IGROV1 ovarian = system: IGROV1 ovarian
NCI-H23 lung = system: NCI-H23 lung
MDA-MB-468 breast = system: MDA-MB-468 breast
T-47D breast = system: T-47D breast
LOX IMVI melanoma = system: LOX IMVI melanoma
HCT-15 colon = system: HCT-15 colon
CAKI-1 renal = system: CAKI-1 renal
HS 578T breast = system: HS 578T breast
NCI/ADR-RES ovarian = system: NCI/ADR-RES ovarian
DU-145 prostate = system: DU-145 prostate
SW-620 colon = system: SW-620 colon
NCI-H522 lung = system: NCI-H522 lung
K-562 leukemia = system: K-562 leukemia
OVCAR-4 ovarian = system: OVCAR-4 ovarian
PC-3 prostate = system: PC-3 prostate
SNB-19 CNS = system: SNB-19 CNS
MOLT-4 leukemia = system: MOLT-4 leukemia
HOP-62 NSCLC = system: HOP-62 NSCLC
BT-549 breast = system: BT-549 breast
SN12C renal = system: SN12C renal
SF-295 CNS = system: SF-295 CNS
HL-60(TB) leukemia = system: HL-60(TB) leukemia
SNB-75 CNS = system: SNB-75 CNS
OVCAR-5 ovarian = system: OVCAR-5 ovarian
RXF 393 renal = system: RXF 393 renal

For `O=C(CSc1nnc(-c2ccc3nc(-c4ccc(Cl)cc4)[nH]c3c2)o1)Nc1ccc(Cl)cc1`, the GI50 (TK-10 renal) was 10.3 µM, the TGI (TK-10 renal) was 26.5 µM and the GI50 (COLO 205 colon) was 3.52 µM. For the same molecule, the TGI (COLO 205 colon) was 28.5 µM, the GI50 (SK-MEL-28 melanoma) was 1.94 µM and the TGI (SK-MEL-28 melanoma) was 4.22 µM. For the same molecule, the GI50 (SK-MEL-5 melanoma) was 1.97 µM, the TGI (SK-MEL-5 melanoma) was 4.2 µM and the GI50 (SF-539 CNS) was 1.55 µM. The TGI (SF-539 CNS) was 2.9 µM, the GI50 (EKVX NSCLC) was 2.04 µM and the TGI (EKVX NSCLC) was 6.43 µM. For the same molecule, the GI50 (SR leukemia) was 3.6 µM, the TGI (SR leukemia) was greater than 100 µM and the GI50 (NCI-H226 lung) was 1.72 µM. The TGI (NCI-H226 lung) was 4.33 µM, the GI50 (UACC-257 melanoma) was 2.4 µM and the TGI (UACC-257 melanoma) was 6.24 µM. The GI50 (A498 renal) was 12.3 µM, the TGI (A498 renal) was 26.4 µM and the GI50 (HCC-2998 colon) was 3.63 µM. The TGI (HCC-2998 colon) was 14.4 µM, the GI50 (KM12 colon) was 2.78 µM and the TGI (KM12 colon) was 27 µM. The GI50 (MCF7 breast) was 1.76 µM, the TGI (MCF7 breast) was 4.08 µM and the GI50 (SK-OV-3 ovarian) was 3.89 µM. The TGI (SK-OV-3 ovarian) was 14.1 µM, the GI50 (SF-268 CNS) was 3.18 µM and the TGI (SF-268 CNS) was 77.9 µM. The GI50 (M14 melanoma) was 2.11 µM, the TGI (M14 melanoma) was 5.01 µM and the GI50 (UO-31 renal) was 1.61 µM. The TGI (UO-31 renal) was 4.02 µM, the GI50 (HOP-92 NSCLC) was 2.33 µM and the TGI (HOP-92 NSCLC) was 6.86 µM. The GI50 (SK-MEL-2 melanoma) was 2.53 µM, the TGI (SK-MEL-2 melanoma) was 7.08 µM and the GI50 (MDA-MB-231 breast) was 1.66 µM. It also gave a TGI (MDA-MB-231 breast) of 3.11 µM, a GI50 (ACHN renal) of 1.51 µM and a TGI (ACHN renal) of 3.19 µM. For the same molecule, the GI50 (NCI-H460 lung) was 1.77 µM, the TGI (NCI-H460 lung) was 3.38 µM and the GI50 (MALME-3M melanoma) was 1.86 µM. The TGI (MALME-3M melanoma) was 4.07 µM, the GI50 (UACC-62 melanoma) was 1.56 µM and the TGI (UACC-62 melanoma) was 3.37 µM. For the same molecule, the GI50 (IGROV1 ovarian) was 2.24 µM, the TGI (IGROV1 ovarian) was 7.98 µM and the GI50 (NCI-H23 lung) was 1.65 µM. The TGI (NCI-H23 lung) was 3.24 µM, the GI50 (MDA-MB-468 breast) was 2.41 µM and the TGI (MDA-MB-468 breast) was 6.19 µM. The GI50 (T-47D breast) was 7.07 µM, the TGI (T-47D breast) was 68.2 µM and the GI50 (LOX IMVI melanoma) was 1.54 µM. The TGI (LOX IMVI melanoma) was 2.88 µM, the GI50 (HCT-15 colon) was 1.37 µM and the TGI (HCT-15 colon) was 3.18 µM. For the same molecule, the GI50 (CAKI-1 renal) was 1.62 µM, the TGI (CAKI-1 renal) was 3.79 µM and the GI50 (HS 578T breast) was 2.43 µM. For the same molecule, the TGI (HS 578T breast) was 8.1 µM, the GI50 (NCI/ADR-RES ovarian) was 2.55 µM and the TGI (NCI/ADR-RES ovarian) was 6.92 µM. It also gave a GI50 (DU-145 prostate) of 2.53 µM, a TGI (DU-145 prostate) of 6.35 µM and a GI50 (SW-620 colon) of 2.18 µM. For the same molecule, the TGI (SW-620 colon) was 5.72 µM, the GI50 (NCI-H522 lung) was 2.05 µM and the TGI (NCI-H522 lung) was 5.61 µM. For the same molecule, the GI50 (K-562 leukemia) was 2.89 µM, the TGI (K-562 leukemia) was greater than 100 µM and the GI50 (OVCAR-4 ovarian) was 2.61 µM. It also gave a TGI (OVCAR-4 ovarian) of 7.73 µM, a GI50 (PC-3 prostate) of 2.44 µM and a TGI (PC-3 prostate) of 7.99 µM. For the same molecule, the GI50 (SNB-19 CNS) was 2.04 µM, the TGI (SNB-19 CNS) was 4.52 µM and the GI50 (MOLT-4 leukemia) was 2.6 µM. It also gave a TGI (MOLT-4 leukemia) greater than 100 µM, a GI50 (HOP-62 NSCLC) of 2.3 µM and a TGI (HOP-62 NSCLC) of 5.46 µM. For the same molecule, the GI50 (BT-549 breast) was 2.33 µM, the TGI (BT-549 breast) was 5 µM and the GI50 (SN12C renal) was 1.69 µM. For the same molecule, the TGI (SN12C renal) was 3.19 µM, the GI50 (SF-295 CNS) was 1.64 µM and the TGI (SF-295 CNS) was 3.14 µM. The GI50 (HL-60(TB) leukemia) was 2.43 µM, the TGI (HL-60(TB) leukemia) was 7.59 µM and the GI50 (SNB-75 CNS) was 1.75 µM. The TGI (SNB-75 CNS) was 5.58 µM, the GI50 (OVCAR-5 ovarian) was 8.68 µM and the TGI (OVCAR-5 ovarian) was 23.9 µM. It also gave a GI50 (RXF 393 renal) of 1.59 µM and a TGI (RXF 393 renal) of 3.7 µM.
